Experiment [1] concerns the target T1, SARS-CoV-2 nsp3-mac1 (Severe acute respiratory syndrome coronavirus 2, UniProt P0DTD1). The experiment is described as follows: biochemical. As to conditions: SARS-CoV-2 nsp3 macrodomain TR-FRET single point, concentration 50.0 uM. Format: biochemical. Background: TR-FRET usually uses a lanthanide donor and a delayed reading to cut background.
For experiment [2], the target named is T1, SARS-CoV-2 nsp3-mac1. In words: biochemical. Details: SARS-CoV-2 nsp3 macrodomain TR-FRET single point, per cent inhibition, n=2.

Like-named read-outs stand apart in the source and are kept apart here.

In the case of `O=C(NCc1nc(-c2ccco2)n[nH]1)c1cc2nccn2c(=O)[nH]1` [ASAP-0000068], the perc_inhibition_mean in experiment [1] was -5.425%. Moreover, the inhibition at 50 µM in experiment [2] (read-out: perc_inhibition_mean, batch_name=ASAP-0000068-001) is -5.42%.

As to `O=C(Nc1ccc(O)cc1)Nc1ccc(Oc2ccccc2)cc1` [ASAP-0000069], the perc_inhibition_mean in experiment [1] is recorded as -3.306%. In addition, in experiment [2] (read-out: perc_inhibition_mean, batch_name=ASAP-0000069-001), the inhibition at 50 µM is -3.31%.

As for `COc1nc2cc(NC(=O)c3cc(N4CCNC4=O)ccc3F)ccc2[nH]1` [ASAP-0000070], the perc_inhibition_mean in experiment [1] is recorded as -4.208%. Further, in experiment [2] (read-out: perc_inhibition_mean, batch_name=ASAP-0000070-001), the inhibition at 50 µM was -4.21%.

Consider `CC(C)OCCNC(=O)c1cc2c(=O)n3ccccc3nc2n1C` [ASAP-0000071], for which, in experiment [1], the perc_inhibition_mean is on record as 14.037%. In addition, in experiment [2] (read-out: perc_inhibition_mean, batch_name=ASAP-0000071-001), the inhibition at 50 µM is 14%.

Consider `O=C(O)[C@H]1CCCCCN1C(=O)c1ncnc2[nH]ccc12` [ASAP-0000072], for which the perc_inhibition_mean in experiment [1] is reported as 11.75%. Besides, the inhibition at 50 µM in experiment [2] (read-out: perc_inhibition_mean, batch_name=ASAP-0000072-001) turned out to be 11.8%.

`C[C@@H](O)[C@@H]1CN(C(=O)c2ncnc3[nH]ccc23)CCO1` [ASAP-0000073]: in experiment [1], the perc_inhibition_mean was -3.131%. Besides, in experiment [2] (read-out: perc_inhibition_mean, batch_name=ASAP-0000073-001), the inhibition at 50 µM was -3.13%.

Take `c1ccc(Cn2ncc3c2CCC[C@@H]3Nc2ncnc3[nH]ccc23)cc1` [ASAP-0000074]: in experiment [1], the perc_inhibition_mean worked out at 5.848%. The inhibition at 50 µM in experiment [2] (read-out: perc_inhibition_mean, batch_name=ASAP-0000074-001) is 5.85%.

Turning to `FC(F)(F)CO[C@@H]1CCCN(c2ncnc3[nH]ccc23)C1` [ASAP-0000075], the perc_inhibition_mean in experiment [1] came to 22.218%. For the same molecule, in experiment [2] (read-out: perc_inhibition_mean, batch_name=ASAP-0000075-001), the inhibition at 50 µM was found to be 22.2%.

On to `C[C@@H](CO)Nc1ncnc2[nH]c(C(=O)OC(C)(C)C)cc12` [ASAP-0000076], for which the perc_inhibition_mean in experiment [1] was found to be 10.712%. Further, the inhibition at 50 µM in experiment [2] (read-out: perc_inhibition_mean, batch_name=ASAP-0000076-001) worked out at 10.7%.

Take `CC(C)(C[C@@H]1CCCN(c2ncnc3[nH]ccc23)C1)C(N)=O` [ASAP-0000077]: the perc_inhibition_mean in experiment [1] was -1.586%. In addition, the inhibition at 50 µM in experiment [2] (read-out: perc_inhibition_mean, batch_name=ASAP-0000077-001) was -1.59%.

Consider `Cc1nc(NC(=O)[C@@H]2CCCOC2)c2ccnc-2[nH]1` [ASAP-0000078], for which the perc_inhibition_mean in experiment [1] is on record as -3.202%. The inhibition at 50 µM in experiment [2] (read-out: perc_inhibition_mean, batch_name=ASAP-0000078-001) is -3.2%.

On to `O=C(Nc1cnc2[nH]ncc2c1)c1cc(C2CC2)[nH]c1C1CC1` [ASAP-0000079], for which the perc_inhibition_mean in experiment [1] is listed as -23.613%. The inhibition at 50 µM in experiment [2] (read-out: perc_inhibition_mean, batch_name=ASAP-0000079-001) was -23.6%.

As for `O[C@H]1C[C@](CNc2ncnc3[nH]ccc23)(c2ccccc2)C1` [ASAP-0000080], the perc_inhibition_mean in experiment [1] is given as 11.369%. The inhibition at 50 µM in experiment [2] (read-out: perc_inhibition_mean, batch_name=ASAP-0000080-001) was found to be 11.4%.

For the molecule `Cc1[nH]c2ncnc(NC(=O)CCc3ccccc3)c2c1C` [ASAP-0000081], in experiment [1], the perc_inhibition_mean is recorded as 5.021%. The inhibition at 50 µM in experiment [2] (read-out: perc_inhibition_mean, batch_name=ASAP-0000081-001) was determined as 5.02%.

With `CCC[C@@](C)(NC(=O)c1ncnc2[nH]ccc12)C(=O)OC` [ASAP-0000082], the perc_inhibition_mean in experiment [1] is listed as -6.621%. In addition, in experiment [2] (read-out: perc_inhibition_mean, batch_name=ASAP-0000082-001), the inhibition at 50 µM is -6.62%.

For the molecule `Oc1ccccc1CNc1ncnc2[nH]cnc12` [ASAP-0000083], the perc_inhibition_mean in experiment [1] is listed as 1.904%. Further, the inhibition at 50 µM in experiment [2] (read-out: perc_inhibition_mean, batch_name=ASAP-0000083-001) amounted to 1.9%.

With `Cc1nn(Cc2ccccc2)c(C)c1CNc1ncnc2[nH]ncc12` [ASAP-0000084], the perc_inhibition_mean in experiment [1] is recorded as -1.755%. In addition, in experiment [2] (read-out: perc_inhibition_mean, batch_name=ASAP-0000084-001), the inhibition at 50 µM was -1.75%.

As to `c1ccc2sc([C@@H]3CCCN(c4ncnc5[nH]ccc45)C3)nc2c1` [ASAP-0000085], the perc_inhibition_mean in experiment [1] was -0.779%. In addition, the inhibition at 50 µM in experiment [2] (read-out: perc_inhibition_mean, batch_name=ASAP-0000085-001) was -0.779%.

Consider `COc1ccc(Nc2ncnc3[nH]ncc23)c(OC)c1` [ASAP-0000086], for which the perc_inhibition_mean in experiment [1] was 2.597%. Besides, the inhibition at 50 µM in experiment [2] (read-out: perc_inhibition_mean, batch_name=ASAP-0000086-001) stood at 2.6%.

As for `CCc1nc(CN(C)c2nc(C)nc3[nH]ccc23)cs1` [ASAP-0000087], the perc_inhibition_mean in experiment [1] is listed as -6.131%. The inhibition at 50 µM in experiment [2] (read-out: perc_inhibition_mean, batch_name=ASAP-0000087-001) was -6.13%.
